≈ marks a conversion by molar mass, not a printed value.
Columns and labels:
Assay in all cases: MIC, CLSI broth microdilution
Format in all cases: cell-based
[1] = test system: Pseudomonas aeruginosa ATCC 27853; conditions: ATCC27853
Experimental: (§1) Gram-negative and Gram-positive bacterial strains used during the in vitro minimum inhibitory concentration (MIC) determination were obtained either from the American Type Culture Collection (ATCC) or from clinical specimens. All strains were characterized genotypically and the respective antibiotic resistance markers for each strain were identified.
(§2) Isolates were sub-cultured onto appropriate media and stocked in skim milk at −80° C. Following two subcultures from frozen stock, in vitro antimicrobial susceptibility testing was performed using the Clinical and Laboratory Standards Institute (CLSI) broth microdilution method. Briefly, fresh cultures were suspended in culture media to give a final stock inoculum size of 5×10^7 colony forming units per milliliter of broth (CFU/mL). […] 100 μL of the stock solutions were added to the first wells in a 96-well plate and were then diluted using a 2-fold dilution method to give a range of 32-0.025 μg/mL. 100 μL of the bacterial suspensions were then added to the 96-well plates to give a final working inoculum size of 5×10^5 CFU/mL. The final compound concentration range was 16-0.0125 μg/mL. […] MICs for comparator agents were determined using custom-designed, in-house prepared 96-well broth microdilution panels.

[2] = test system: Klebsiella pneumoniae OXA-48, SHV-1
Experimental: as §1, §2

Escherichia coli CMY-2 = conditions: CMY2
Experimental: as §1, §2

[3] = test system: Acinetobacter baumannii ATCC 19606; conditions: ATCC19606
Experimental: as §1, §2

[4] = test system: Escherichia coli Empty pSMART plasmid
Experimental: as §1, §2

Escherichia coli SHV-12 = conditions: SHV12
Experimental: as §1, §2

[5] = test system: Escherichia coli ATCC 25922; conditions: ATCC25922
Experimental: as §1, §2

[6] = test system: Escherichia coli CTX-M-15; conditions: CTXM15
Experimental: as §1, §2

[7] = test system: Klebsiella pneumoniae KPC-2; conditions: KPC2
Experimental: as §1, §2

[8] = test system: Klebsiella pneumoniae KPC-3; conditions: KPC3, KPC-3, read-out: MIC
Experimental: as §1, §2

[9] = test system: Klebsiella pneumoniae SHV-12; conditions: SHV12, SHV-12, read-out: MIC
Experimental: as §1, §2

[10] = test system: Enterobacter cloacae species complex NDM-1
Experimental: as §1, §2

[11] = test system: Escherichia coli Isogenic TEM-10
Experimental: as §1, §2

[12] = test system: Escherichia coli Isogenic TEM-26
Experimental: as §1, §2

[13] = test system: Klebsiella pneumoniae OXA-163, OXA-1_OXA-30, SHV-1, TEM-1
Experimental: as §1, §2

[14] = test system: Serratia marcescens AmpC overexpressed
Experimental: as §1, §2

[15] = test system: Klebsiella oxytoca KPC-2, TEM-1; conditions: KPC-2, TEM-1, read-out: MIC
Experimental: as §1, §2

[16] = test system: Pseudomonas aeruginosa OprD negative
Experimental: as §1, §2

[17] = test system: Serratia marcescens SME-2; conditions: SME2
Experimental: as §1, §2

[18] = test system: Escherichia coli pSMART_Ecloacae_AmpC
Experimental: as §1, §2

[19] = test system: Pseudomonas aeruginosa AmpC overexpressed
Experimental: as §1, §2

[20] = test system: Klebsiella aerogenes VIM-1, SHV-12
Experimental: as §1, §2

[21] = test system: Citrobacter freundii species complex OXA-181; conditions: Citrobacter freundii species complex, OXA-181; read-out: MIC
Experimental: as §1, §2

[22] = test system: Escherichia coli pSMART_Cfreundii_AmpC
Experimental: as §1, §2

| Compound | MIC [1] [µg/mL] | MIC [2] [µg/mL] | MIC (Escherichia coli CMY-2) [µg/mL] | MIC [3] [µg/mL] | MIC [4] [µg/mL] | MIC (Escherichia coli SHV-12) [µg/mL] | MIC [5] [µg/mL] | MIC [6] [µg/mL] | MIC [7] [µg/mL] | MIC [8] [µg/mL] | MIC [9] [µg/mL] | MIC [10] [µg/mL] | MIC [11] [µg/mL] | MIC [12] [µg/mL] | MIC [13] [µg/mL] | MIC [14] [µg/mL] | MIC [15] [µg/mL] | MIC [16] [µg/mL] | MIC [17] [µg/mL] | MIC [18] [µg/mL] | other results |
| --- | --- | --- | --- | --- | --- | --- | --- | --- | --- | --- | --- | --- | --- | --- | --- | --- | --- | --- | --- | --- | --- |
| Nc1nc(/C(=N/OC2(C(=O)O)CCC(Cl)(Cl)CC2)C(=O)N[C@H]2CON(C3(C(=O)O)C[C@H](N4C(=O)c5cc(O)c(O)cc5C4=O)C(=O)O3)C2=O)cs1 (stereo partly drawn) [Cmpd 12, (4S)-2-[(4S)-4-{[(2Z)-2-(2-amino-1,3-thiazol-4-yl)-2-{[(1-carboxy-4,4-dichlorocyclohexyl)oxy]imino}acetyl]amino}-3-oxo-1,2-oxazolidin-2-yl]-4-(5,6-dihydroxy-1,3-dioxo-1,3-dihydro-2H-isoindol-2-yl)-5-oxooxolane-2-carboxylic acid] | 0.25 (≈ 0.324 µM) | ≤ 0.015 | 1 (≈ 1.3 µM) | 0.25 (≈ 0.324 µM) | 0.03 (≈ 0.0389 µM) | 2 (≈ 2.59 µM) | 0.25 (≈ 0.324 µM) | 4 (≈ 5.18 µM) | 0.06 (≈ 0.0778 µM) | 0.06 (≈ 0.0778 µM) | 0.03 (≈ 0.0389 µM) | 2 (≈ 2.59 µM) | 0.06 (≈ 0.0778 µM) | 0.06 (≈ 0.0778 µM) | 0.12 (≈ 0.156 µM) | 0.25 (≈ 0.324 µM) | ≤ 0.015 | 0.25 (≈ 0.324 µM) | 0.12 (≈ 0.156 µM) | 0.06 (≈ 0.0778 µM) | MIC [19]: 2 µg/mL (≈ 2.59 µM); MIC [20]: 0.5 µg/mL (≈ 0.648 µM); MIC [21]: 0.03 µg/mL (≈ 0.0389 µM); MIC [22]: 0.06 µg/mL (≈ 0.0778 µM) |
| Nc1nc(/C(=N/OC2(C(=O)O)CC3CCC(C2)O3)C(=O)N[C@H]2CON(C3(C(=O)O)C[C@H](N4C(=O)c5cc(O)c(O)nc5C4=O)C(=O)O3)C2=O)cs1 (stereo partly drawn) [Cmpd 27, 3-({(Z)-[1-(2-amino-1,3-thiazol-4-yl)-2-({(4S)-2-[(4S)-2-carboxy-4-(2,3-dihydroxy-5,7-dioxo-5,7-dihydro-6H-pyrrolo[3,4-b]pyridin-6-yl)-5-oxooxolan-2-yl]-3-oxo-1,2-oxazolidin-4-yl}amino)-2-oxoethylidene]amino}oxy)-8-oxabicyclo[3.2.1]octane-3-carboxylic acid] | 4 (≈ 5.47 µM) | 0.03 (≈ 0.041 µM) | 4 (≈ 5.47 µM) | 1 (≈ 1.37 µM) | 0.25 (≈ 0.342 µM) | 8 (≈ 10.9 µM) | 0.5 (≈ 0.683 µM) | 8 (≈ 10.9 µM) | 0.06 (≈ 0.082 µM) | 0.12 (≈ 0.164 µM) | 0.12 (≈ 0.164 µM) | 2 (≈ 2.73 µM) | 0.25 (≈ 0.342 µM) | 0.12 (≈ 0.164 µM) | 0.25 (≈ 0.342 µM) | 0.5 (≈ 0.683 µM) | 0.0149 (≈ 0.0204 µM) | 2 (≈ 2.73 µM) | 1 (≈ 1.37 µM) | 0.25 (≈ 0.342 µM) | MIC [19]: 4 µg/mL (≈ 5.47 µM); MIC [20]: 0.12 µg/mL (≈ 0.164 µM); MIC [21]: 0.12 µg/mL (≈ 0.164 µM); MIC [22]: 0.25 µg/mL (≈ 0.342 µM) |
| Nc1nc(/C(=N/OC2(C(=O)O)CCOCC2)C(=O)N[C@H]2CON(C3(C(=O)O)C[C@H](N4Cc5cc(O)c(O)cc5C4=O)C(=O)O3)C2=O)cs1 (stereo partly drawn) [Cmpd 29, 4-({(Z)-[1-(2-amino-1,3-thiazol-4-yl)-2-({(4S)-2-[(4S)-2-carboxy-4-(5,6-dihydroxy-1-oxo-1,3-dihydro-2H-isoindol-2-yl)-5-oxooxolan-2-yl]-3-oxo-1,2-oxazolidin-4-yl}amino)-2-oxoethylidene]amino}oxy)oxane-4-carboxylic acid] | 0.5 (≈ 0.724 µM) | 0.03 (≈ 0.0434 µM) | 2 (≈ 2.9 µM) | 0.12 (≈ 0.174 µM) | 0.5 (≈ 0.724 µM) | 2 (≈ 2.9 µM) | 0.5 (≈ 0.724 µM) | 2 (≈ 2.9 µM) | 0.0149 (≈ 0.0216 µM) | 0.06 (≈ 0.0869 µM) | 0.06 (≈ 0.0869 µM) | 4 (≈ 5.79 µM) | 0.03 (≈ 0.0434 µM) | 0.03 (≈ 0.0434 µM) | 0.25 (≈ 0.362 µM) | 0.25 (≈ 0.362 µM) | 0.0149 (≈ 0.0216 µM) | 0.5 (≈ 0.724 µM) | 0.25 (≈ 0.362 µM) | 0.12 (≈ 0.174 µM) | MIC [19]: 2 µg/mL (≈ 2.9 µM); MIC [20]: 0.25 µg/mL (≈ 0.362 µM); MIC [21]: 0.12 µg/mL (≈ 0.174 µM); MIC [22]: 0.25 µg/mL (≈ 0.362 µM) |

Source: patent US11780832B2, “Lactivicin compounds, their preparation and use as antibacterial agents” (priority 2021, dated 2023)
